Data reported in ChEMBL document CHEMBL3045939, “Synthesis and evaluation of fused pyrimidine derivatives as anti-inflammatory, antiproliferative and antimicrobial agents” (Med Chem Res, 2012).
In brackets after ≈: the same amount, converted by molar mass.

Legend:
Aspergillus flavus [1] = assay: Antimicrobial activity against Aspergillus flavus ATCC 15517 assessed as reduction in log10 CFU/ml at MIC after 2 hr by time kill study relative to control; type: functional; set-up: scale not given: the % may be the effect or the level left
Candida albicans [2] = assay: Antimicrobial activity against Candida albicans ATCC 24433 assessed as reduction in log10 CFU/ml at MIC after 24 hr by time kill study relative to control; type: functional; set-up: scale not given: the % may be the effect or the level left
Candida albicans [3] = assay: Antimicrobial activity against Candida albicans ATCC 24433 assessed as reduction in log10 CFU/ml at MIC after 12 hr by time kill study relative to control; type: functional; set-up: scale not given: the % may be the effect or the level left
Candida albicans [4] = assay: Antimicrobial activity against Candida albicans ATCC 24433 assessed as reduction in log10 CFU/ml at MIC after 6 hr by time kill study relative to control; type: functional; set-up: scale not given: the % may be the effect or the level left
Candida albicans [5] = assay: Antimicrobial activity against Candida albicans ATCC 24433 assessed as reduction in log10 CFU/ml at MIC after 4 hr by time kill study relative to control; type: functional; set-up: scale not given: the % may be the effect or the level left
Candida albicans [6] = assay: Antimicrobial activity against Candida albicans ATCC 24433 assessed as reduction in log10 CFU/ml at MIC after 2 hr by time kill study relative to control; type: functional; set-up: scale not given: the % may be the effect or the level left
Escherichia coli [7] = assay: Antimicrobial activity against Escherichia coli ATCC 25922 assessed as reduction in log10 CFU/ml at MIC after 24 hr by time kill study relative to control; type: functional; set-up: scale not given: the % may be the effect or the level left
Escherichia coli [8] = assay: Antimicrobial activity against Escherichia coli ATCC 25922 assessed as reduction in log10 CFU/ml at MIC after 12 hr by time kill study relative to control; type: functional; set-up: scale not given: the % may be the effect or the level left
Escherichia coli [9] = assay: Antimicrobial activity against Escherichia coli ATCC 25922 assessed as reduction in log10 CFU/ml at MIC after 6 hr by time kill study relative to control; type: functional; set-up: scale not given: the % may be the effect or the level left
Escherichia coli [10] = assay: Antimicrobial activity against Escherichia coli ATCC 25922 assessed as reduction in log10 CFU/ml at MIC after 4 hr by time kill study relative to control; type: functional; set-up: scale not given: the % may be the effect or the level left
Escherichia coli [11] = assay: Antimicrobial activity against Escherichia coli ATCC 25922 assessed as reduction in log10 CFU/ml at MIC after 2 hr by time kill study relative to control; type: functional; set-up: scale not given: the % may be the effect or the level left
Staphylococcus aureus [12] = assay: Antimicrobial activity against Staphylococcus aureus ATCC 25923 assessed as reduction in log10 CFU/ml at MIC after 24 hr by time kill study relative to control; type: functional; set-up: scale not given: the % may be the effect or the level left
Staphylococcus aureus [13] = assay: Antimicrobial activity against Staphylococcus aureus ATCC 25923 assessed as reduction in log10 CFU/ml at MIC after 12 hr by time kill study relative to control; type: functional; set-up: scale not given: the % may be the effect or the level left
Staphylococcus aureus [14] = assay: Antimicrobial activity against Staphylococcus aureus ATCC 25923 assessed as reduction in log10 CFU/ml at MIC after 6 hr by time kill study relative to control; type: functional; set-up: scale not given: the % may be the effect or the level left
Staphylococcus aureus [15] = assay: Antimicrobial activity against Staphylococcus aureus ATCC 25923 assessed as reduction in log10 CFU/ml at MIC after 4 hr by time kill study relative to control; type: functional; set-up: scale not given: the % may be the effect or the level left
Staphylococcus aureus [16] = assay: Antimicrobial activity against Staphylococcus aureus ATCC 25923 assessed as reduction in log10 CFU/ml at MIC after 2 hr by time kill study relative to control; type: functional; set-up: scale not given: the % may be the effect or the level left
Pseudomonas aeruginosa [17] = assay: Antimicrobial activity against Pseudomonas aeruginosa ATCC 27853 assessed as reduction in log10 CFU/ml at MIC after 24 hr by time kill study relative to control; type: functional; set-up: scale not given: the % may be the effect or the level left
Pseudomonas aeruginosa [18] = assay: Antimicrobial activity against Pseudomonas aeruginosa ATCC 27853 assessed as reduction in log10 CFU/ml at MIC after 12 hr by time kill study relative to control; type: functional; set-up: scale not given: the % may be the effect or the level left
Pseudomonas aeruginosa [19] = assay: Antimicrobial activity against Pseudomonas aeruginosa ATCC 27853 assessed as reduction in log10 CFU/ml at MIC after 6 hr by time kill study relative to control; type: functional; set-up: scale not given: the % may be the effect or the level left
Pseudomonas aeruginosa [20] = assay: Antimicrobial activity against Pseudomonas aeruginosa ATCC 27853 assessed as reduction in log10 CFU/ml at MIC after 4 hr by time kill study relative to control; type: functional; set-up: scale not given: the % may be the effect or the level left
Pseudomonas aeruginosa [21] = assay: Antimicrobial activity against Pseudomonas aeruginosa ATCC 27853 assessed as reduction in log10 CFU/ml at MIC after 2 hr by time kill study relative to control; type: functional; set-up: scale not given: the % may be the effect or the level left
Aspergillus flavus [22] = assay: Antimicrobial activity against Aspergillus flavus ATCC 15517 after 48 hr by broth micro dilution assay; type: functional; conditions: ATCC 15517, 48 h
Candida albicans [23] = assay: Antimicrobial activity against Candida albicans ATCC 24433 after 48 hr by broth micro dilution assay; type: functional; conditions: ATCC 24433, 48 h
Escherichia coli [24] = assay: Antimicrobial activity against Escherichia coli ATCC 25922 after 24 hr by broth micro dilution assay; type: functional; conditions: ATCC 25922, 24 h
Staphylococcus aureus [25] = assay: Antimicrobial activity against Staphylococcus aureus ATCC 25923 after 24 hr by broth micro dilution assay; type: functional; conditions: ATCC 25923, 24 h
Pseudomonas aeruginosa [26] = assay: Antimicrobial activity against Pseudomonas aeruginosa ATCC 27853 after 24 hr by broth micro dilution assay; type: functional; conditions: ATCC 27853, 24 h
HEp-2 = assay: Cytotoxicity against Homo sapiens (human) Hep2 cells after 24 hr by MTT assay; type: functional, cell-based; conditions: HEp-2, 24 h
HeLa = assay: Cytotoxicity against Homo sapiens (human) HeLa cells after 24 hr by MTT assay; type: functional, cell-based
[27] = Cytotoxicity against Homo sapiens (human) Chang cells after 24 hr by MTT assay; type: functional, cell-based
Rattus norvegicus [28] = assay: Anti-inflammatory activity in Rattus norvegicus Wistar albino (rat) assessed as carrageenan-induced paw volume at 100 mg/kg, po administered 1 hr prior to carrageenan-challenge measured at 5 hr (reference value: 1.24 +/- 0.0754 mm3); type: functional
Rattus norvegicus [29] = assay: Anti-inflammatory activity in Rattus norvegicus Wistar albino (rat) assessed as carrageenan-induced paw volume at 100 mg/kg, po administered 1 hr prior to carrageenan-challenge measured at 4 hr (reference value: 1.2825 +/- 0.0862 mm3); type: functional
Rattus norvegicus [30] = assay: Anti-inflammatory activity in Rattus norvegicus Wistar albino (rat) assessed as carrageenan-induced paw volume at 100 mg/kg, po administered 1 hr prior to carrageenan-challenge measured at 3 hr (reference value: 1.225 +/- 0.0484 mm3); type: functional
Rattus norvegicus [31] = assay: Anti-inflammatory activity in Rattus norvegicus Wistar albino (rat) assessed as carrageenan-induced paw volume at 100 mg/kg, po administered 1 hr prior to carrageenan-challenge measured at 2 hr (reference value: 1.4175 +/- 0.1931 mm3); type: functional
Rattus norvegicus [32] = assay: Anti-inflammatory activity in Rattus norvegicus Wistar albino (rat) assessed as carrageenan-induced paw volume at 100 mg/kg, po administered 1 hr prior to carrageenan-challenge measured at 1 hr (reference value: 1.2075 +/- 0.0405 mm3); type: functional
Aspergillus flavus [33] = assay: Antimicrobial activity against Aspergillus flavus ATCC 15517 assessed as reduction in log10 CFU/ml at MIC after 24 hr by time kill study relative to control; type: functional; set-up: scale not given: the % may be the effect or the level left
Aspergillus flavus [34] = assay: Antimicrobial activity against Aspergillus flavus ATCC 15517 assessed as reduction in log10 CFU/ml at MIC after 12 hr by time kill study relative to control; type: functional; set-up: scale not given: the % may be the effect or the level left
Aspergillus flavus [35] = assay: Antimicrobial activity against Aspergillus flavus ATCC 15517 assessed as reduction in log10 CFU/ml at MIC after 6 hr by time kill study relative to control; type: functional; set-up: scale not given: the % may be the effect or the level left
Aspergillus flavus [36] = assay: Antimicrobial activity against Aspergillus flavus ATCC 15517 assessed as reduction in log10 CFU/ml at MIC after 4 hr by time kill study relative to control; type: functional; set-up: scale not given: the % may be the effect or the level left

O=c1c2cc(Cl)ccc2nc(-c2ccccc2)n1-c1ccc(F)cc1
Activity (Aspergillus flavus [1]): 11.1%
Activity (Candida albicans [2]): 100%
Activity (Candida albicans [3]): 100%
Activity (Candida albicans [4]): 100%
Activity (Candida albicans [5]): 66.7%
Activity (Candida albicans [6]): 44.4%
Activity (Escherichia coli [7]): 100%
Activity (Escherichia coli [8]): 100%
Activity (Escherichia coli [9]): 100%
Activity (Escherichia coli [10]): 66.7%
Activity (Escherichia coli [11]): 33.3%
Activity (Staphylococcus aureus [12]): 100%
Activity (Staphylococcus aureus [13]): 100%
Activity (Staphylococcus aureus [14]): 100%
Activity (Staphylococcus aureus [15]): 66.7%
Activity (Staphylococcus aureus [16]): 33.3%
Activity (Pseudomonas aeruginosa [17]): 100%
Activity (Pseudomonas aeruginosa [18]): 100%
Activity (Pseudomonas aeruginosa [19]): 100%
Activity (Pseudomonas aeruginosa [20]): 66.7%
Activity (Pseudomonas aeruginosa [21]): 66.7%
MIC (Aspergillus flavus [22]): 6.25 mg/L (≈ 17.8 µM)
MIC (Candida albicans [23]): 1.56 mg/L (≈ 4.45 µM)
MIC (Escherichia coli [24]): 0.39 mg/L (≈ 1.11 µM)
MIC (Staphylococcus aureus [25]): 0.39 mg/L (≈ 1.11 µM)
MIC (Pseudomonas aeruginosa [26]): 0.78 mg/L (≈ 2.22 µM)
IC50 (HEp-2): 10.8 mg/L (≈ 30.7 µM)
IC50 (HeLa): < 25 mg/L
IC50 [27]: 16.6 mg/L (≈ 47.3 µM)
Activity (Rattus norvegicus [28]): 1.21 mm3
Activity (Rattus norvegicus [29]): 1.275 mm3
Activity (Rattus norvegicus [30]): 1.21 mm3
Activity (Rattus norvegicus [31]): 1.2675 mm3
Activity (Rattus norvegicus [32]): 1.22 mm3
Activity (Aspergillus flavus [33]): 100%
Activity (Aspergillus flavus [34]): 66.7%
Activity (Aspergillus flavus [35]): 88.9%
Activity (Aspergillus flavus [36]): 22.2%

COc1ccc(-n2c(-c3ccccc3)nc3ccc(Cl)cc3c2=O)cc1
MIC (Aspergillus flavus [22]): > 100 mg/L
MIC (Candida albicans [23]): 12.5 mg/L (≈ 34.5 µM)
MIC (Escherichia coli [24]): 1.56 mg/L (≈ 4.3 µM)
MIC (Staphylococcus aureus [25]): 3.12 mg/L (≈ 8.6 µM)
MIC (Pseudomonas aeruginosa [26]): 3.12 mg/L (≈ 8.6 µM)
IC50 (HEp-2): 12.5 mg/L (≈ 34.5 µM)
IC50 (HeLa): < 50 mg/L
IC50 [27]: > 25 mg/L
Activity (Rattus norvegicus [28]): 1.175 mm3
Activity (Rattus norvegicus [29]): 1.14 mm3
Activity (Rattus norvegicus [30]): 1.21 mm3
Activity (Rattus norvegicus [32]): 1.12 mm3
